Measured values taken from article PMC10831071, “Reaction hijacking inhibition of Plasmodium falciparum asparagine tRNA synthetase” (Nature Communications, 2024).
Values after ≈ are worked out from the molar mass of the structure shown. Values joined by “and” are separate entries in the source; they are usually repeats but may differ in a detail not shown here. Identical values can stand only once. Like-named read-outs stand apart in the source and are kept apart here.

Legend:
Solubility = type: physicochemical
[1] = system: PfNT4 cKD P. falciparum line; test: microbe, parasite or virus in culture; type: cell-based, Plasmodium falciparum; details: for growth after 72 h exposure, normalised to no drug: PfNT4 K/D, replicates; for IC50: PfNT4 line, individual repeats
Text: (§1) Conditional knockdown (cKD) P. falciparum lines were generated for the cytosolic AsnRS (PF3D7_0211800), cytosolic AlaRS (PF3D7_1367700), cytosolic GlyRS (GlyRS; PF3D7_1420400), PfNT4 (PF3D7_0103200), P. falciparum glutamate dehydrogenase 3 (GDH3; PF3D7_0802000), and P. falciparum carbonic anhydrase (CA, PF3D7_1140000) by fusing the coding sequences and non-coding RNA aptamer sequences in the 3’-UTR, permitting translation regulation using the TetR-DOZI system[59],[60]. Gene editing was achieved by CRISPR/SpCas9 using the linear pSN054 vector that contains cloning sites for the left homology region (LHR) and the right homology region (RHR) as well a target-specific guide RNA under control of the T7 promoter. Cloning into the pSN054 donor vector was carried out following described procedures[59],[60]. The vector includes V5-2xHA epitope tags, a 10x tandem array of TetR aptamers upstream of an Hsp86 3’UTR, and a multicistronic cassette for expression of TetR-DOZI (translation regulation), blasticidin S-deaminase (selection marker) and a Renilla luciferase (RLuc) reporter. All primer and synthetic fragment sequences that were generated using the BioXP™ system and IDT gBlocks™ are included in Supplementary Table 9. The final constructs were sequence-verified and further confirmed by restriction digests.
(§2) Transfection into Cas9- and T7 RNA polymerase-expressing NF54 parasites was carried out by pre-loading red blood cells (RBCs) with the donor vector[61]. […] Cultures were monitored by Giemsa smears and RLuc measurements.
(§3) DMSO- and dihydroartemisinin-treatment (0.5 µM) served as reference controls.

[2] = system: PfAsnRS cKD P. falciparum line; test: microbe, parasite or virus in culture; type: cell-based, Plasmodium falciparum; details: for growth after 72 h exposure, normalised to no drug: PfAsnRS K/D, replicates
Text: as §1, §2, §3

[3] = system: PfGlyRS cKD P. falciparum line; test: microbe, parasite or virus in culture; type: cell-based, Plasmodium falciparum; details: for Growth: PfGlyRS K/D; for IC50: PfGlyRS line, individual repeats
Text: as §1, §2, §3

[4] = Plasmodium falciparum, 1 nM, […] aTc or no aTc
[5] = Plasmodium falciparum, 500 nM aTc

Nc1ncnc2cc(-c3cccc(S(N)(=O)=O)c3)sc12 [OSM-S-106]
solubility (Solubility; pH 2, simulated gastric fluid): 50 to 100 µg/mL (≈ 163 to 326 µM)
solubility (Solubility; pH 6.5, aqueous buffer): 12.5 to 25 µg/mL (≈ 40.8 to 81.6 µM)
growth after 72 h exposure, normalised to no drug ([1]; 500 nM aTc, 0.488281 nM): 115.319 and 105.291 and 111.528
growth after 72 h exposure, normalised to no drug ([1]; 500 nM aTc, 0.976562 nM): 113.41 and 102.567 and 108.441
growth after 72 h exposure, normalised to no drug ([1]; 500 nM aTc, 1.95312 nM): 108.529 and 100.357 and 100.986
growth after 72 h exposure, normalised to no drug ([1]; 500 nM aTc, 3.90625 nM): 110.366 and 98.6162 and 100.564
growth after 72 h exposure, normalised to no drug ([1]; 500 nM aTc, 7.8125 nM): 101.389 and 100.305 and 97.246
growth after 72 h exposure, normalised to no drug ([1]; 500 nM aTc, 31.25 nM): 11.2119 and 13.2391 and 14.7628
growth after 72 h exposure, normalised to no drug ([1]; 500 nM aTc, 62.5 nM): 1.785 and 2.763 and 1.994
growth after 72 h exposure, normalised to no drug ([1]; 500 nM aTc, 125 nM): 0.2373 and 0.4204 and 0.2459
growth after 72 h exposure, normalised to no drug ([1]; 500 nM aTc, 250 nM): 0.2337 and 0.2689 and 0.2037
growth after 72 h exposure, normalised to no drug ([1]; no aTc, 0.488281 nM): 115.9 and 108.506 and 115.265
growth after 72 h exposure, normalised to no drug ([1]; no aTc, 0.976562 nM): 107.637 and 104.459 and 111.884
growth after 72 h exposure, normalised to no drug ([1]; no aTc, 1.95312 nM): 103.621 and 102.992 and 106.407
growth after 72 h exposure, normalised to no drug ([1]; no aTc, 3.90625 nM): 93.8123 and 99.6909 and 104.029
growth after 72 h exposure, normalised to no drug ([1]; no aTc, 7.8125 nM): 30.4373 and 37.6726 and 51.4607
growth after 72 h exposure, normalised to no drug ([1]; no aTc, 31.25 nM): 0.5987 and 0.9711 and 0.5614
growth after 72 h exposure, normalised to no drug ([1]; no aTc, 62.5 nM): 0.1353 and 0.2821 and 0.05072
growth after 72 h exposure, normalised to no drug ([1]; no aTc, 125 nM): 0.1322 and 0.3476 and 0.0472
growth after 72 h exposure, normalised to no drug ([1]; no aTc, 250 nM): 0.1415 and 0.3214 and 0.1916
IC50 ([1]; 500 nM aTc): 20.5 nM and 21.4 nM
IC50 [1, 4]: 6.09 nM
IC50 [1, 5]: 19.9 nM
growth after 72 h exposure, normalised to no drug ([2]; 1 nM aTc, 3.125 nM): 100 (2×) and 98.2196
growth after 72 h exposure, normalised to no drug ([2]; 1 nM aTc, 6.25 nM): 101.298 and 95.7154 and 83.7406
growth after 72 h exposure, normalised to no drug ([2]; 1 nM aTc, 12.5 nM): 113.486 and 107.859 and 50.8034
growth after 72 h exposure, normalised to no drug ([2]; 1 nM aTc, 25 nM): 72.3501 and 87.3666 and 36.7561
growth after 72 h exposure, normalised to no drug ([2]; 1 nM aTc, 50 nM): 8.286 and 14.406 and 55.7128
growth after 72 h exposure, normalised to no drug ([2]; 1 nM aTc, 100 nM): 12.9721 and 14.646 and 33.4758
growth after 72 h exposure, normalised to no drug ([2]; 1 nM aTc, 200 nM): 2.187 and 4.184 and 3.619
growth after 72 h exposure, normalised to no drug ([2]; 1 nM aTc, 400 nM): 0.0118 and 0.3256 and 1.407
growth after 72 h exposure, normalised to no drug ([2]; 1 nM aTc, 800 nM): 0 (2×) and 0.3116
growth after 72 h exposure, normalised to no drug ([2]; 1 nM aTc, […]): 95.5045
growth after 72 h exposure, normalised to no drug ([2]; 500 nM aTc, 3.125 nM): 100 (2×) and 130.484
growth after 72 h exposure, normalised to no drug ([2]; 500 nM aTc, 6.25 nM): 102.095 and 95.7689 and 98.7064
growth after 72 h exposure, normalised to no drug ([2]; 500 nM aTc, 12.5 nM): 106.159 and 101.462 and 104.967
growth after 72 h exposure, normalised to no drug ([2]; 500 nM aTc, 25 nM): 108.223 and 97.6665 and 110.496
growth after 72 h exposure, normalised to no drug ([2]; 500 nM aTc, 50 nM): 109.874 and 96.9998 and 112.12
growth after 72 h exposure, normalised to no drug ([2]; 500 nM aTc, 100 nM): 74.5373 and 61.9971 and 57.4067
growth after 72 h exposure, normalised to no drug ([2]; 500 nM aTc, 200 nM): 13.0647 and 13.1882 and 56.7167
growth after 72 h exposure, normalised to no drug ([2]; 500 nM aTc, 400 nM): 1.083 and 1.38 and 11.7035
growth after 72 h exposure, normalised to no drug ([2]; 500 nM aTc, 800 nM): 0 (2×) and 1.573
growth after 72 h exposure, normalised to no drug ([2]; 500 nM aTc, […]): 123.179
IC50 ([2]; PfAsnRS line, 500 nM aTc, individual repeats): 116 nM and 175 nM
IC50 ([2]; Plasmodium falciparum, PfAsnRS line, 500 nM aTc, individual repeats): 123 nM
IC50 ([2]; Plasmodium falciparum, read-out: Mean IC50 with 500 nM aTc, PfAsnRS line, 500 nM aTc): 140 nM
IC50 ([2]; Plasmodium falciparum, read-out: Mean IC50 with low (1 or […])/ no aTc, PfAsnRS knockdown, low aTc): 26 nM
Growth ([3]; 3.125 nM OSM-S-106, 500 nM aTc): 112.465 and 111.772 and 85.4538
Growth ([3]; 6.25 nM OSM-S-106, 500 nM aTc): 122.27 and 121.35 and 91.2762
Growth ([3]; 12.5 nM OSM-S-106, 500 nM aTc): 106.05 and 112.162 and 76.632
Growth ([3]; 100 nM OSM-S-106, 500 nM aTc): 9.878 and 6.142 and 8.685
Growth ([3]; 200 nM OSM-S-106, 500 nM aTc): 7.891 and 8.53 and 4.96
IC50 ([3]; 1 nM, […] aTc or no aTc): 40.7 nM
IC50 ([3]; 500 nM aTc): 37.2 nM
IC50 [3, 4]: 39.5 nM
IC50 [3, 5]: 39.3 nM
